Values of other authors in patent US20100286187A1, “METHOD OF PREDICTING SURVIVAL OF A NON-SMALL-CELL LUNG CANCER PATIENT TO A CHEMOTHERAPEUTIC TREATMENT” (PANGAEA BIOTECH S.A., priority 2006, published 2010).

Key:
[1] = tested on: non-small cell lung cancer (NSCLC) patients; conditions: single agent, previously untreated NSCLC patients
[2] = tested on: non-small cell lung cancer (NSCLC); conditions: randomized study, per arm

| Compound | Response rates [1] | Median survival [2] [months] |
| --- | --- | --- |
| CC(=O)O[C@@]12CO[C@@H]1C[C@H](O)[C@@]1(C)C(=O)[C@H](O)C3=C(C)[C@@H](OC(=O)[C@H](O)[C@@H](NC(=O)OC(C)(C)C)c4ccccc4)C[C@@](O)([C@@H](OC(=O)c4ccccc4)[C@H]21)C3(C)C [Docetaxel] | 21-38% |  |
| paclitaxel/carboplatin |  | 8.2 |
